{"source": "patent US20090233999A1", "about": "“COMPOSITIONS AND THERAPEUTIC METHODS INVOLVING ISOFLAVONES AND ANALOGUES THEREOF” (NOVOGEN RESEARCH PTY LTD, priority 1999, published 2009)", "type_in_all_cases": "in vivo, mouse", "key": {"IL-6": {"system": "IL-6", "experiment": "UVB psoriasis model: immunohistochemical detection of IL-6", "settings": "20 μM topical; 72 h; Skh:hr-1", "method": "Groups of three Skh:hr-1 mice were exposed to 3×MEdD of UVB radiation, with and without topical treatment with 20 μM Cpd. 18, and were euthanased before and at 24, 48, 72 and 96 h after irradiation, and mid-dorsal skin samples were taken for histological fixation. The samples were fixed for 6 h in Histochoice (Amresco Solon, Ohio), then processed overnight in an automated formalin-ethanol-based system (Tissue Tek VIP; Bayer Diagnostics, Ferntree Gully, Australia) and embedded into paraffin blocks. Sections of 4 μm were cut onto silane-coated slides, de-waxed and rehydrated using xylene followed by graded aqueous ethanol solutions to PBS. […]\nThe IL-6 was detected by incubation with goat anti-mouse IL-6 antibody (R & D systems) followed biotinylated anti-goat IgG (Vector Laboratories, Burl ingame, CA), before treating with StreptABComplex/HRP (biotinylated horseradish peroxidase and streptavidin; Dako Corporation, CA) for 30 min. […]\nThe stained sections were examined by light microscopy at 20× magnification and images were captured digitally with a Sony Hyper HAD colour video camera (Sony, Tokyo, Japan). Stain intensity was analysed using a Leica Q500 MC image processing and analysis system (Leica, Cambridge, UK) and semi-quantitated in arbitrary image analysis units as the average intensity of 15 sequential fields across the skin section for each of 3 mice per treatment group. […]"}, "SJL/J mice (EAE)": {"system": "SJL/J mice (EAE)", "experiment": "Experimental autoimmune encephalomyelitis (EAE), PLP 139-151", "settings": "20 μM, 100 μl topical daily", "method": "EAE induction was carried by immunisation with PLP 139-151 ([…]-NH2) in incomplete Freund's adjuvant (Sigma) supplemented with 4 mg/ml of Mycobacterium tuberculosis (strain H37Ra) as described previously, Groups of 6 female mice aged 4-5 weeks old were immunised, and body weight and the development neurological signs were monitored daily for 6 weeks. Clinical signs were scored according to an established scale:\nCpd. 18 was made up to a concentration of 20 μM in a vehicle of propylene glycol-ethanol-water (1:2:1) with 0.001% DMSO). An aliquot of 100 μl either of Cpd. 18 in vehicle, or the vehicle alone, was applied to the mouse dorsum (six mice per group) for 5 days before the immunisation (with PLP 139-151) and daily post-immunisation for 48 days."}, "[1]": {"system": "TNFα, IL-6 and P-cadherin mRNAs", "experiment": "UVB psoriasis model: RT-PCR of TNF-α, IL-6 and P-cadherin mRNAs in skin", "settings": "20 μM lotion topical at 0, 1 and 2 h post-irradiation", "text": "Inbred, 6-8 weeks of age female C57/BL6, C3H/HeN and Skh:hr-1 (hairless) mice were fed normal stock rodent rations and tap water ad libitum. One day prior to UVB irradiation, the dorsal hair of C57/BL6 and C3H/HeN mice was removed by clipping. A single UVB tube (Phillips TL-40W/12 RS, Eindhoven, The Netherlands) emitting a spectrum of 280-365 nm with a peak emission at 310 nm, was used as the light source for the experiments. The radiation was filtered through a sheet of 0.125 mm cellulose acetate (Grafix Plastics, OH, USA) to block wavelengths below 290 nm. Irradiance was measured with an IL 1500 radiometer (International Light Inc. Newburyport, Mass.) with a UVB detector (SEE 240/UVB) calibrated to the spectral output, and recorded as 1.71×10-4 W/cm2. Groups of three female C57/BL6 and C3H/HeN mice were exposed unrestrained in their cages to 7.24 kJ/m2 UVB radiation equal to 3× the minimal erythemal dose (MED) in these haired mice (fur clipped), an exposure of approximately 70 min. Control mice were clipped of fur in the same manner but were not exposed to UVB irradiation. Groups of 3 Skh:hr-1 mice received 3.59 kJ/m2 of UVB, which is equal to 3×MED on hairless mouse skin. Temperature under the radiation source was stabilised during the exposures with surrounding curtains and an electric fan.\nCpd. […]"}}, "data": [{"smiles": "COc1ccc(C2=Cc3ccc(O)cc3OC2)cc1OC", "note": "[Cpd. 18, 7-Hydroxy-3′,4′-dimethoxyisoflav-3-ene]", "values": [{"measurement": "UVB-induced levels of IL-6 immunopositivity in the epidermis", "setting": "IL-6", "value": "significantly reduced"}, {"measurement": "disease course", "setting": "SJL/J mice (EAE)", "value": "chronic relatively stable disease"}, {"measurement": "severity of clinical signs", "setting": "SJL/J mice (EAE); acute phase and first relapse at 28-36 days", "value": "tended to reduce the severity"}, {"measurement": "production of TNFα, IL-6 and P-cadherin mRNAs post-UVB", "setting": "[1]", "value": "markedly reduced"}]}]}
